Laboratory results taken from patent US7628987B2, “Vectors derived from antibodies for transferring substances into cells” (Institut Pasteur, priority 1997, dated 2009).

Legend:
HSV-1 TK^− virus = assay: microbe, parasite or virus in culture; format: cell-based, Herpes Virus Simplex type I; settings: for inhibition of the CPE effect, in words: HSV-1 TK^−; for CPE inhibition (AI): HSV1 TK^−
HSV-1 TK^+ virus = assay: microbe, parasite or virus in culture; format: cell-based, Herpes Virus Simplex type I
Vero cells = assay: Toxicity reference: non infected treated Vero cells (Neutral Red OD); format: cell-based, monkey
Method: The CPE inhibition test is a semi-quantitative test which measures the % survival of the cells. The following protocol was followed: Vero cells were trypsinised (trypsin-versene, Eurobio), distributed in flat bottomed 96-well plates (Falcon) in an amount of […] per well, in 50 μl of DMEM medium (Bioproducts) supplemented with antibiotics, L-glutamine and 5% FCS (Eurobio), then incubated for 24 hours. The peptide/antibodies, sterilised on a […] filter, were added in an amount of […] using the following schedule: • H−24: cells into culture; • H−0: infection; • H−2, H−1, H0, H+1: add peptides; • H+48: CPE test.
48 hours after infection, the medium was removed and the wells were washed 3 times with 200 μl of sterile PBS buffer containing Ca^2+ and Mg^2+, so as to eliminate dead cells. Neutral Red (RAL, 0.3%) was added (100 μl/well) and the cells were incubated for 2 more hours. The cells were then washed 3 times as described above to eliminate colorant which had not been incorporated into the cells. The cells were then exploded by adding 100 μl of 1% SDS in distilled water. After 1 hour at 4° C. to completely leach out the Neutral Red, the crystals were dissolved with a pipette. Air bubbles were destroyed by a current of hot air (hair dryer) and the plates were read, using a microplate reader at 570 nm using a 630 nm reference filter. The optical density blank was air.
The following controls were used: • Reference cells: non infected and non treated, incubated with Neutral Red; • Reference virus: infected cells with different dilutions of a factor of 2 of virus, from 100% CPE (dilution 1/1) to 12.5% CPE (1/8 dilution); • Antiviral reference: cells treated with acyclovir and infected; and • Toxicity reference: non infected cells, treated with different peptides/antibodies.

PV1/Sabin = format: cell-based, polio virus type 1; settings: PV1/Sabin, peptide 25 μg/ml, day 5
PV1/Mahoney = format: cell-based, polio virus type 1; settings: peptide 25 μg/ml, day 5
[1] = Human alphaherpesvirus 1, Vero, read-out: CPE inhibition (antiviral activity)
[2] = HSV1 TK^+, added H + 1, 5 μ/well
[3] = HSV1 TK^+, added H − 1, 5 μ/well
[4] = HSV1 TK^+, added H − 2, 5 μ/well

With Nc1nc2c(ncn2COCCO)c(=O)[nH]1 [ACYCLOVIR ®, Acyclovir, reference compound] the “inhibition of the CPE effect, in words” value (HSV-1 TK^− virus) was “no effect”, the inhibition at 1 µM (HSV-1 TK^− virus; [1]) was 0% and the inhibition at 10 µM (HSV-1 TK^− virus; [1]) was 0%. The inhibition at 100 µM (HSV-1 TK^− virus; [1]) was 0%, the inhibition at 1000 µM (HSV-1 TK^− virus; [1]) was 0% and the inhibition at 1000 µM (HSV-1 TK^+ virus; Human alphaherpesvirus 1, Vero, 10^−3 M, HSV1 TK^+, read-out: CPE inhibition (antiviral activity)) was 62%. The inhibition at 100 µM (HSV-1 TK^+ virus; Human alphaherpesvirus 1, Vero, 10^−4 M, HSV1 TK^+, read-out: CPE inhibition (antiviral activity)) was 49%, the inhibition at 10 µM (HSV-1 TK^+ virus; Human alphaherpesvirus 1, Vero, 10^−5 M, HSV1 TK^+, read-out: CPE inhibition (antiviral activity)) was 7% and the inhibition at 1 µM (HSV-1 TK^+ virus; Human alphaherpesvirus 1, Vero, 10^−6 M, HSV1 TK^+, read-out: CPE inhibition (antiviral activity)) was 9%. For the same molecule, the “optical density, non infected cells” value (Vero cells; 10^−3 M /0, column HSV1 TK^+) was 0.909 ± 0.016, the “optical density, non infected cells” value (Vero cells; 10^−3 M /0, column HSV1 TK^−) was 0.789 ± 0.160 and the “optical density, non infected cells” value (Vero cells; 10^−4 M /0, column HSV1 TK^+) was 1.027 ± 0.042. The “optical density, non infected cells” value (Vero cells; 10^−4 M /0, column HSV1 TK^−) was 0.834 ± 0.086, the “optical density, non infected cells” value (Vero cells; 10^−5 M /0, column HSV1 TK^+) was 0.975 ± 0.093 and the “optical density, non infected cells” value (Vero cells; 10^−5 M /0, column HSV1 TK^−) was 0.869 ± 0.053. The “optical density, non infected cells” value (Vero cells; 10^−6 M /0, column HSV1 TK^+) was 0.960 ± 0.025 and the “optical density, non infected cells” value (Vero cells; 10^−6 M /0, column HSV1 TK^−) was 0.816 ± 0.001.
“(K)19-AISRGGGYSYYLDTVKRTARATWDWFAY (KKKKKKKKKKKKKKKKKKKAISRGGGYSYYLDTVKRTARATWDWFAY) [K19PC2.1]” was tested, and the “CPE inhibition (AI)” value (HSV-1 TK^− virus; added H0, 5 μ/well) was 81, the “CPE inhibition (AI)” value (HSV-1 TK^− virus; added H0, 10 μ/well) was 92 and the “CPE inhibition (AI)” value (HSV-1 TK^− virus; added H + 1, 5 μ/well) was 26. For the same molecule, the “CPE inhibition (AI)” value (HSV-1 TK^− virus; added H − 1, 5 μ/well) was 72, the “CPE inhibition (AI)” value (HSV-1 TK^− virus; added H − 2, 5 μ/well) was 100 and the “CPE inhibition (AI)” value (HSV-1 TK^+ virus; HSV1 TK^+, added H0, 5 μ/well) was 69. For the same molecule, the “CPE inhibition (AI)” value (HSV-1 TK^+ virus; [2]) was 37, the “CPE inhibition (AI)” value (HSV-1 TK^+ virus; [3]) was 8 and the “CPE inhibition (AI)” value (HSV-1 TK^+ virus; [4]) was 1. The “LOG (TITER/ML)” value (PV1/Sabin) was 8.6, the “TITER REDUCTION FACTOR” value (PV1/Sabin) was 8 and the “LOG (TITER/ML)” value (PV1/Mahoney) was 9.05. The “TITER REDUCTION FACTOR” value (PV1/Mahoney) was 4.
In the case of “(K)19-VAYISRGGGIFYYQDSIKGRFTREKYGKRGMDY (KKKKKKKKKKKKKKKKKKKVAYISRGGGIFYYQDSIKGRFTREKYGKRGMDY) [K19pJ20-8]”, the “CPE inhibition (AI)” value (HSV-1 TK^− virus; added H0, 5 μ/well) is reported as 38, the “CPE inhibition (AI)” value (HSV-1 TK^− virus; added H0, 10 μ/well) is reported as 56 and the “CPE inhibition (AI)” value (HSV-1 TK^− virus; added H0, 20 μ/well) is reported as 86. The “CPE inhibition (AI)” value (HSV-1 TK^− virus; added H + 1, 5 μ/well) was 1, the “CPE inhibition (AI)” value (HSV-1 TK^− virus; added H + 1, 10 μ/well) was 3 and the “CPE inhibition (AI)” value (HSV-1 TK^− virus; added H + 1, 20 μ/well) was 11. For the same molecule, the “CPE inhibition (AI)” value (HSV-1 TK^− virus; added H − 1, 5 μ/well) was 29, the “CPE inhibition (AI)” value (HSV-1 TK^− virus; added H − 1, 10 μ/well) was 49 and the “CPE inhibition (AI)” value (HSV-1 TK^− virus; added H − 1, 20 μ/well) was 100. For the same molecule, the “CPE inhibition (AI)” value (HSV-1 TK^− virus; added H − 2, 5 μ/well) was 55, the “CPE inhibition (AI)” value (HSV-1 TK^− virus; added H − 2, 10 μ/well) was 46 and the “CPE inhibition (AI)” value (HSV-1 TK^− virus; added H − 2, 20 μ/well) was 0. For the same molecule, the “inhibition of the CPE effect, in words” value (HSV-1 TK^− virus) was “very active against the two viral strains”, the “CPE inhibition (AI)” value (HSV-1 TK^+ virus; HSV1 TK^+, added H0, 5 μ/well) was 37 and the “CPE inhibition (AI)” value (HSV-1 TK^+ virus; HSV1 TK^+, added H0, 10 μ/well) was 71. For the same molecule, the “CPE inhibition (AI)” value (HSV-1 TK^+ virus; HSV1 TK^+, added H0, 20 μ/well) was 86, the “CPE inhibition (AI)” value (HSV-1 TK^+ virus; [2]) was 0 and the “CPE inhibition (AI)” value (HSV-1 TK^+ virus; HSV1 TK^+, added H + 1, 10 μ/well) was 1. For the same molecule, the “CPE inhibition (AI)” value (HSV-1 TK^+ virus; HSV1 TK^+, added H + 1, 20 μ/well) was 0, the “CPE inhibition (AI)” value (HSV-1 TK^+ virus; [3]) was 27 and the “CPE inhibition (AI)” value (HSV-1 TK^+ virus; HSV1 TK^+, added H − 1, 10 μ/well) was 74. The “CPE inhibition (AI)” value (HSV-1 TK^+ virus; HSV1 TK^+, added H − 1, 20 μ/well) was 89, the “CPE inhibition (AI)” value (HSV-1 TK^+ virus; [4]) was 1 and the “CPE inhibition (AI)” value (HSV-1 TK^+ virus; HSV1 TK^+, added H − 2, 10 μ/well) was 44. For the same molecule, the “CPE inhibition (AI)” value (HSV-1 TK^+ virus; HSV1 TK^+, added H − 2, 20 μ/well) was 78, the “inhibition of the CPE effect, in words” value (HSV-1 TK^+ virus; HSV-1 TK^+) was “very active against the two viral strains” and the “LOG (TITER/ML)” value (PV1/Sabin) was 8.6. The “TITER REDUCTION FACTOR” value (PV1/Sabin) was 8, the “LOG (TITER/ML)” value (PV1/Mahoney) was 8.9 and the “TITER REDUCTION FACTOR” value (PV1/Mahoney) was 6.
